pIC50: −log10 of the molar value.
Target: human GSK3β (Homo sapiens, UniProt P49841)
Assay: Screening for GSK3 inhibitory activity using a cell-free assay
Type: biochemical
Details: read-out: IC50 with respect to GSK3
In short: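 Compounds in DMSO were tested against human GSK3β over a three-hour kinase reaction. Radiolabeled phosphate transferred to the peptide was captured on streptavidin plates after EDTA/ATP stop and quantified by scintillation counting. Signal was plotted versus compound concentration.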

Chain of human GSK3β (P49841 whole entry): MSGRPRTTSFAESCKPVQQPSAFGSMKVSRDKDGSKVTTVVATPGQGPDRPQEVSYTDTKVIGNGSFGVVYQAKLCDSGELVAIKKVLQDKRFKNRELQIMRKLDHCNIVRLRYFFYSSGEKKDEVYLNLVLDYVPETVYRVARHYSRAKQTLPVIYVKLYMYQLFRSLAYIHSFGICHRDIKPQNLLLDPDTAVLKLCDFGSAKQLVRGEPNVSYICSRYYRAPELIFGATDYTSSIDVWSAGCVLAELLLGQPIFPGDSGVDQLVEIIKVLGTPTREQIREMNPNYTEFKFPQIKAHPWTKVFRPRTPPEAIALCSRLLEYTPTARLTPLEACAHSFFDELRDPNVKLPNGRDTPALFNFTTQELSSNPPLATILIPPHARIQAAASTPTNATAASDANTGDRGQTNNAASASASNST

SMILES | pIC50
CCOC(=O)c1cnc(NCCNc2ccc([N+](=O)[O-])cn2)nc1-c1ccc(Cl)cc1Cl [ethyl 4-(2,4-dichlorophenyl)-2-({2-[(5-nitro(2-pyridyl))amino]ethyl}amino)-pyrimidine-5-carboxylate] | ≥ 6.00
COc1cccc(CNC(=O)c2ccc(-c3ccnc(NCCNc4ccc([N+](=O)[O-])cn4)n3)cc2)c1OC [N-[(2,3-dimethoxyphenyl)methyl]{4-[2-({2-[(5-nitro(2-pyridyl))amino]ethyl}amino)pyrimidin-4-yl]phenyl}carboxamide] | ≥ 5.00
O=[N+]([O-])c1ccc(NCCNc2nccc(-c3ccc(-c4nc(Cl)c(Cl)[nH]4)cc3)n2)nc1 [{4-[4-(4,5-dichloroimidazol-2-yl)phenyl]-pyrimidin-2-yl}{2-[(5-nitro(2-pyridyl))amino]ethyl}amine] | ≥ 5.00
CCOC(=O)c1cnc(NCCNc2ccc([N+](=O)[O-])c(N)n2)nc1-c1ccc(Cl)cc1Cl [ethyl 2-({2-[(6-amino-5-nitro(2-pyridyl))amino]ethyl}amino)-4-(2,4-dichlorophenyl)-pyrimidine-5-carboxylate] | ≥ 6.00
O=[N+]([O-])c1ccc(NCCN(CCN2CCOCC2)c2ncc(-n3ccnc3)c(-c3ccc(Cl)cc3Cl)n2)nc1 [[4-(2,4-dichlorophenyl)-5-imidazolylpyrimidin-2-yl](2-morpholin-4-ylethyl){2-[(5-nitro(2-pyridyl))amino]ethyl}amine] | ≥ 6.00
CCOC(=O)c1cnc(NCCNc2ccc(C(=O)OC)cn2)nc1-c1ccc(C#N)cc1 [methyl 6-[(2-{[4-(4-cyanophenyl)-5-(ethoxycarbonyl)pyrimidin-2-yl]amino}ethyl)amino]pyridine-3-carboxylate] | ≥ 5.00
O=C(NCc1cccc(Cl)c1)c1ccc(-c2ccnc(NCCNc3ccc([N+](=O)[O-])cn3)n2)cc1 [N-[(3-chlorophenyl)methyl]{4-[2-({2-[(5-nitro(2-pyridyl))amino]ethyl}amino)pyrimidin-4-yl]-phenyl}carboxamide] | ≥ 5.00
O=C(NCc1cccc(Br)c1)c1ccc(-c2ccnc(NCCNc3ccc([N+](=O)[O-])cc3)n2)cc1 [N-[(3-bromophenyl)-methyl]{4-[2-({2-[(4-nitrophenyl)amino]ethyl}amino)pyrimidin-4-yl]phenyl}carboxamide] | ≥ 5.00
O=C(NCc1cccc(Br)c1)c1ccc(-c2ccnc(NCCNc3ccc([N+](=O)[O-])cn3)n2)cc1 [N-[(3-bromophenyl)methyl]{4-[2-({2-[(5-nitro(2-pyridyl))amino]ethyl}amino)pyrimidin-4-yl]phenyl}carboxamide] | ≥ 5.00
CCc1ccc(-c2nc(N(C)CCNc3ccc(C#N)cn3)ccc2N2CCN(C)CC2=O)cc1 [6-({2-[[6-(4-ethylphenyl)-5-(4-methyl-2-oxo-1-piperazinyl)-2-pyridinyl](methyl)amino]ethyl}amino)nicotinonitrile] | ≥ 5.00
CCOC(=O)c1cnc(NCCc2cccc(OC)c2)nc1-c1ccc(C#N)cc1 [ethyl 4-(4-cyanophenyl)-2-{[2-(3-methoxyphenyl)ethyl]amino}pyrimidine-5-carboxylate] | ≥ 5.00
CCOC(=O)c1cnc(NCCNc2ccc([N+](=O)[O-])cn2)nc1-c1ccc(C(C)(C)C)cc1 [ethyl 4-[4-(tert-butyl)-phenyl]-2-({2-[(5-nitro(2-pyridyl))amino]ethyl}amino)pyrimidine-5-carboxylate] | ≥ 6.00
c1ccc(Cc2cnc(NCCNc3ccccn3)nc2-c2ccccc2)cc1 [[4-phenyl-5-benzyl-pyrimidin-2-yl][2-(2-pyridylamino)ethyl]amine] | ≥ 5.00
NC(=O)c1ccc(-c2ccnc(NCCOc3ccccc3)n2)cc1 [4-{2-[(2-phenoxyethyl)amino]pyrimidin-4-yl}benzamide] | ≥ 5.00
N#Cc1ccc(NCCNc2ncc(-n3cc(Cl)ccc3=O)c(-c3ccc(Cl)cc3Cl)n2)nc1 | ≥ 6.00
NC(=O)c1ccc(-c2ccnc(NCCc3cccc(Cl)c3)n2)cc1 | ≥ 5.00
CN(C)CCOC(=O)c1cnc(NCCNc2ccc([N+](=O)[O-])cn2)nc1-c1ccc(C#N)cc1 | ≥ 6.00
NC(=O)c1ccc(-c2ccnc(NCCCOc3ccc4ccccc4c3)n2)cc1 [4-{2-[(3-(2-naphthyloxy)propyl)amino]pyrimidin-4-yl}benzamide] | ≥ 5.00
N#Cc1cnc(NCCNc2ccc([N+](=O)[O-])cn2)nc1-c1ccccc1 [2-({2-[(5-nitro(2-pyridyl))amino]ethyl}amino)-4-phenylpyrimidine-5-carbonitrile] | ≥ 6.00
O=[N+]([O-])c1ccc(NCCNc2nccc(-c3cccc(O)c3)n2)nc1 [3-[2-({2-[(5-nitro-2-pyridyl)amino]ethyl}-amino)pyrimidin-4-yl]phenol] | ≥ 5.00
Cc1cn(-c2cnc(NCCNc3ccc([N+](=O)[O-])c(N)n3)nc2-c2ccc(Cl)cc2Cl)c(C)n1 | ≥ 6.00

SMILES | pIC50
FC(F)(F)c1ccc(NCCNc2ncc(-c3ncc[nH]3)c(-c3ccc(Cl)cc3Cl)n2)nc1 [[4-(2,4-dichlorophenyl)-5-imidazol-2-ylpyrimidin-2-yl](2-{[5-(trifluoromethyl)(2-pyridyl)]amino}ethyl) amine] | ≥ 6.00
COc1cccc(OC)c1CNc1nccc(-c2ccc(C(N)=O)cc2)n1 [4-(2-{[(2,6-dimethoxyphenyl)-methyl]amino}pyrimidin-4-yl)benzamide] | ≥ 5.00
NC(=O)c1ccc(-c2ccnc(NCCc3ccc4c(c3)OCO4)n2)cc1 | ≥ 5.00
O=[N+]([O-])c1ccc(NCCNc2ncc(-c3ncc[nH]3)c(-c3ccc(Br)cc3Cl)n2)nc1 [[4-(4-bromo-2-chlorophenyl)-5-imidazol-2-ylpyrimidin-2-yl]{2-[(5-nitro(2-pyridyl))amino]ethyl}amine] | ≥ 6.00
CCOC(=O)c1cnc(NCCNc2ccc([N+](=O)[O-])cn2)nc1-c1cccc(C(F)(F)F)c1 [ethyl 2-({2-[(5-nitro(2-pyridyl))amino]ethyl}amino)-4-[3-(trifluoromethyl)phenyl]pyrimidine-5-carboxylate] | ≥ 5.00
NC(=O)c1ccc(-c2ccnc(NCc3cccc(-c4cccc(N)c4)c3)n2)cc1 [4-[2-({[3-(3-aminophenyl)phenyl]methyl}amino)pyrimidin-4-yl]benzamide] | ≥ 5.00
NC(=O)c1ccc(-c2ccnc(NCCNc3ncccn3)n2)cc1 [4-(2-{[2-(pyrimidin-2-ylamino)ethyl]amino}pyrimidin-4-yl)benzamide] | ≥ 6.00
COc1cccc(NCCNc2nccc(-c3ccc(C(N)=O)cc3)n2)n1 [4-[2-({2-[(6-methoxy-2-pyridyl)amino]ethyl}amino)pyrimidin-4-yl]benzamide] | ≥ 6.00
COc1ccc(CNC(=O)c2ccc(-c3ccnc(NCCNc4ccc([N+](=O)[O-])cn4)n3)cc2)cc1OC [N-[(3,4-dimethoxyphenyl)methyl]{4-[2-({2-[(5-nitro(2-pyridyl))amino]ethyl}amino)pyrimidin-4-yl]phenyl}carboxamide] | ≥ 5.00
O=C(NCC(c1ccccc1)c1ccccc1)c1ccc(-c2ccnc(NCCNc3ccc([N+](=O)[O-])cn3)n2)cc1 [N-(2,2-diphenylethyl){4-[2-({2-[(5-nitro(2-pyridyl))amino]ethyl}amino)pyrimidin-4-yl]phenyl}carboxamide] | ≥ 5.00
N#Cc1ccc(-c2nc(NCCNc3ccc([N+](=O)[O-])cn3)ncc2C(=O)OCc2ccccc2)cc1 [phenylmethyl 4-(4-cyanophenyl)-2-({2-[(5-nitro(2-pyridyl))amino]ethyl}amino)pyrimidine-5-carboxylate] | ≥ 6.00
NC(=O)c1ccc(-c2ccnc(NCCCOc3ccc(Cl)c(Cl)c3)n2)cc1 [4-(2-{[3-(3,4-dichlorophenoxy)-propyl]amino}pyrimidin-4-yl)benzamide] | ≥ 5.00
Cc1nccn1-c1cnc(NCCNc2ccc([N+](=O)[O-])cn2)nc1-c1ccc(Cl)cc1Cl [[4-(2,4-dichlorophenyl)-5-(2-methylimidazolyl)pyrimidin-2-yl]{2-[(5-nitro(2-pyridyl))amino]ethyl}amine] | ≥ 6.00
CCOC(=O)c1cnc(NCCNc2ccc([N+](=O)[O-])cn2)nc1-c1ccc(CC)cc1 [ethyl 4-(4-ethylphenyl)-2-({2-[(5-nitro(2-pyridyl))amino]ethyl}amino)pyrimidine-5-carboxylate] | ≥ 6.00
Cc1c[nH]c(-c2cnc(NCCNc3ccc([N+](=O)[O-])cn3)nc2-c2ccc(Cl)cc2Cl)n1 [[4-(2,4-dichlorophenyl)-5-(4-methylimidazol-2-yl)pyrimidin-2-yl]{2-[(5-nitro(2-pyridyl))amino]ethyl}amine] | ≥ 6.00
NC(=O)c1ccc(-c2ccnc(NCc3ccc(Br)cc3)n2)cc1 [4-(2-{[(4-bromophenyl)methyl]amino}pyrimidin-4-yl)benzamide] | ≥ 5.00
CCOC(=O)c1cnc(NCCc2ccccn2)nc1-c1cccc([N+](=O)[O-])c1 [ethyl 4-(3-nitrophenyl)-2-[(2-(2-pyridyl)ethyl)-amino]pyrimidine-5-carboxylate] | ≥ 5.00
CCOC(=O)c1cnc(NCCNc2ccc([N+](=O)[O-])cn2)nc1-c1ccc(N2CCOCC2)nc1 [ethyl 4-(6-morpholin-4-yl(3-pyridyl))-2-({2-[(5-nitro(2-pyridyl))amino]-ethyl}amino)pyrimidine-5-carboxylate] | ≥ 6.00
Nc1nc(NCCNc2ncc(-c3ncc[nH]3)c(-c3ccc(F)cc3Cl)n2)ccc1[N+](=O)[O-] [{2-[(6-amino-5-nitro(2-pyridyl))amino]ethyl}[4-(2-chloro-4-fluorophenyl)-5-imidazol-2-ylpyrimidin-2-yl]amine] | ≥ 6.00
N#Cc1ccc(-c2nc(NCCNc3ccc([N+](=O)[O-])cn3)ncc2C(=O)NCc2ccncc2)cc1 [[4-(4-cyanophenyl)-2-({2-[(5-nitro(2-pyridyl))-amino]ethyl}amino)pyrimidin-5-yl]-N-(4-pyridylmethyl)carboxamide] | ≥ 6.00
CCNC(=O)c1ccc(NCCNc2ncc(C(=O)OCC)c(-c3ccc(C#N)cc3)n2)nc1 [ethyl 4-(4-cyanophenyl)-2-[(2-{[5-(N-ethylcarbamoyl)(2-pyridyl)]amino}-ethyl)amino]pyrimidine-5-carboxylate] | ≥ 5.00

Reference: patent publication US7425557B2, “Inhibitors of glycogen synthase kinase 3” (Novartis Vaccines and Diagnostics, Inc., priority 1998, dated 2008)
